Experimental findings from PMC12528394, “Screening and evaluation of therapeutic candidates with vascular protective effects in zebrafish models of diabetic retinopathy” (Scientific Reports, 2025) are described below.

Holding throughout (type): in vivo
One experiment has as its system zebrafish DR model. Briefly: Zebrafish diabetic retinopathy model (130 mM glucose): survival and hyaloid-retinal vessel diameter. The conditions noted are these: 100 µg/ml, 3 to 6 dpf, n = 40 per group. Here is the method: On day 3 post-fertilization, zebrafish embryos with normal differentiation were treated with 130 mM glucose in a 24-well plate (5 embryos per well) to induce a diabetic retinopathy model. Peptides 1, 2, and 3 were administered at concentrations of 20, 100, 200, and 400 µg/ml. On day 6 post-fertilization, embryos were fixed with 4% paraformaldehyde and the hyaloid-retina vessels were isolated. Further experimental details can be found in previous studies.

In the next experiment the test system is Angiopoietin-1. Put plainly: RT-PCR mRNA expression in zebrafish DR model. The following applies: 100 µg/ml, 130 mM glucose, eyes at 6 dpf, RT-PCR normalized to GAPDH, triplicate. As for the experimental part: (§1) The total RNA were extracted from the eyes at 6 dpf using the mRNA kit (PureLink™ RNA Mini Kit, Ambion). The mRNA was measured with a NanoDrop spectrophotometer (Thermo Scientific, Madison, WI, USA) for quantitative analysis and a cDNA synthesis with a SuperScript VILO cDNA Synthesis Kit (Thermo Scientific, Carlsbad, CA, USA). The cDNA was amplified by PCR with zebrafish primer GAPDH, VEGF, Tie2 and Ang-1 with SYBR Green Master Mix (Thermo Scientific, Carlsbad, CA, USA). The mRNA was detected by ViiA7 Real-Time PCR system (Thermo Scientific, Carlsbad, CA, USA). The values were normalized to GAPDH expression. Samples were analyzed in triplicate.

For the next experiment, the system named is Tie2. Briefly: RT-PCR mRNA expression in zebrafish DR model. The following applies: 100 µg/ml, 130 mM glucose, eyes at 6 dpf, RT-PCR normalized to GAPDH, triplicate. Here is the method: as §1
Another experiment has as its system VEGF. Briefly: RT-PCR mRNA expression in zebrafish DR model. The conditions noted are these: 100 µg/ml, 130 mM glucose, eyes at 6 dpf, RT-PCR normalized to GAPDH, triplicate. Here is the method: as §1

Take aflibercept: the “retinal vessel thickness relative to glucose-only group (in words)” value in the experiment with zebrafish DR model is given as “effectively reduced”. Besides, the “Angiopoietin-1 mRNA level versus high-glucose group (in words)” value in the experiment with Angiopoietin-1 is “partially restored”. Further, the “Tie2 mRNA level versus high-glucose group (in words)” value with Tie2 is “partially restored”. In the experiment on VEGF, the “VEGF mRNA level versus high-glucose group (in words)” value is “significantly reduced”.
